According to publication PMC8480776, “Selenium Derivatives as Promising Therapy for Chagas Disease: In Vitro and In Vivo Studies” (ACS Infectious Diseases, 2021):
Like-named read-outs stand apart in the source and are kept apart here.

Experiments:
[1] = type: in vivo, BALB/c mice; conditions: variation vs control
Description: (§1) Female BALB/c mice aged 10–12 weeks and with a size of 20–24 g were divided into five groups (n = 3 per group): 0, negative control group (uninfected and untreated mice); I, positive control group (infected and untreated mice); II, BZN group (infected mice treated with BZN); III, 26 group (infected mice treated with 26); and IV, 28 group (infected mice treated with 28).
(§2) The tested selenocompounds and BZN were prepared at 2 mg·mL^–1 in an aqueous suspension vehicle containing 5% (v/v) DMSO and 0.5% (w/v) hydroxypropyl methylcellulose, as previously reported.[52] Compounds (20 mg·kg^–1 per day) were administered for 5 consecutive days (total dosages of 100 mg·kg^–1), and vehicle only was administered in the negative and positive control groups. Treatments began when the infection was confirmed (9 dpi) for acute-phase-treated mice, and when it was established that the animals moved into the chronic phase (100 dpi, for chronic-phase-treated mice; Scheme 1).
Serum samples obtained from blood in several days post-infection (Scheme 1) were sent to the Biochemical Service (University of Granada) to measure a series of biochemical parameters with the commercial Cromakit using a clinical chemistry analyzer (BS-200, Shenzhen Mindray Biomedical Electronics Co., LTD), as previously described.[41]

[2] = test system: T. cruzi amastigotes, Tulahuen strain; test: Screening against intracellular amastigotes, Tulahuen strain; type: cell-based, Trypanosoma cruzi
[3] = test system: epimastigotes of T. cruzi Arequipa strain; test: Flow cytometry analysis of nucleic acid levels (acridine orange); type: cell-based, Trypanosoma cruzi; conditions: IC25 concentrations, 72 h
[4] = test system: T. cruzi amastigotes, Arequipa strain; test: Screening against intracellular amastigotes, Arequipa strain; type: cell-based, Trypanosoma cruzi
[5] = test system: Vero cells infected with T. cruzi Arequipa strain; test: Infection rate in Vero cells (infected cells), Arequipa strain; type: cell-based; conditions: Trypanosoma cruzi, 72 h of treatment
[6] = test system: T. cruzi trypomastigotes, Arequipa strain; test: Screening against bloodstream trypomastigotes, Arequipa strain; type: cell-based, Trypanosoma cruzi
[7] = biological target: T1, human erythrocytes CuZn-SOD (Homo sapiens, UniProt P00441); test: SOD enzymatic inhibition, CuZn-SOD; type: biochemical
T1 construct: commercial copper/zinc superoxide dismutase (Cu/Zn-SOD) from human erythrocytes (Sigma-Aldrich); purchased Sigma-Aldrich; host or cells: human erythrocytes (natural source)

Trypanosoma cruzi Fe-SOD = test: SOD enzymatic inhibition, Fe-SOD; type: biochemical
[8] = test system: T. cruzi epimastigotes, SN3 strain; test: Screening against extracellular epimastigotes, SN3 strain; type: cell-based, Trypanosoma cruzi
[9] = test system: T. cruzi trypomastigotes, SN3 strain; test: Screening against bloodstream trypomastigotes, SN3 strain; type: cell-based, Trypanosoma cruzi
[10] = test system: T. cruzi amastigotes, SN3 strain; test: Screening against intracellular amastigotes, SN3 strain; type: cell-based, Trypanosoma cruzi
T. cruzi Arequipa strain = test: In vivo trypanocidal activity on BALB/c mice (acute and chronic Chagas disease); set-up: species or system Trypanosoma cruzi
Description: as §1
Mice were infected by intraperitoneal injection of 5 × 10^5 BTs of T. cruzi Arequipa strain per mouse in 200 μL PBS.[42] Subsequently, the treatment was intraperitoneally administered (∼200 μL) once daily for 5 consecutive days.
as §2
[…]. Parasitemia was expressed as parasites·mL^–1.
Immunosuppression was performed by intraperitoneal injection of three doses of 200 mg·kg^–1 of ISOPAC CP at 3–4 day intervals (Scheme 1), as previously reported.[53] Mice were closely monitored for side effects or for secondary infections due to immunosuppression. Within 7 days after the last CP injection, parasitemia reactivation was determined by counting BTs according the procedure described for parasitemia in the acute phase.[42]
On 145 dpi, the mice were euthanized using CO2, followed by exsanguination via cardiac puncture, and blood was collected. […]. In addition, spleens were weighed to assess splenomegaly.[42]
DNA extraction of the post-mortem organs/tissues was performed using Wizard Genomic DNA Purification Kit,[41] and the extracted DNA was subjected to amplification by PCR based on the spliced leader (SL) intergenic region sequence of T. cruzi (for detailed description, see literature reported previously).[55] Finally, the PCR products were resolved by electrophoresis on a 2% agarose gel (containing GelRed nucleic gel stain) for 90 min at 90 V.
Circulating antibodies in serum against both antigens were quantitatively evaluated in triplicate by the ELISA test in 96-well plates using diluted serum samples (1:80 in PBS), as previously described.[41]

[11] = test system: T. cruzi epimastigotes, Tulahuen strain; test: Screening against extracellular epimastigotes, Tulahuen strain; type: cell-based, Trypanosoma cruzi
[12] = test system: T. cruzi epimastigotes, Arequipa strain; test: Screening against extracellular epimastigotes, Arequipa strain; type: cell-based, Trypanosoma cruzi
[13] = test system: T. cruzi trypomastigotes, Tulahuen strain; test: Screening against bloodstream trypomastigotes, Tulahuen strain; type: cell-based, Trypanosoma cruzi
Vero cells = test: Cytotoxicity test on Vero cells; type: cell-based; conditions: Chlorocebus sabaeus, 48 h + 24 h resazurin, read-out: Toxicity IC50 Vero cell
[14] = treatment in acute phase, 15th dpi (2 days after treatment)
[15] = treatment in acute phase, necropsy day
[16] = treatment in chronic phase, 106th dpi (2 days after treatment)
[17] = treatment in chronic phase, necropsy day
[18] = IC50 Vero cells/IC50 amastigotes
[19] = IC50 Vero cells/IC50 trypomastigotes
[20] = IC50 Vero cells/IC50 epimastigotes
[21] = 20 mg·kg–1 per day i.p. 5 days from 9 dpi
[22] = 20 mg·kg–1 per day i.p. 5 days from 100 dpi

T1 sequence (P00441 whole entry): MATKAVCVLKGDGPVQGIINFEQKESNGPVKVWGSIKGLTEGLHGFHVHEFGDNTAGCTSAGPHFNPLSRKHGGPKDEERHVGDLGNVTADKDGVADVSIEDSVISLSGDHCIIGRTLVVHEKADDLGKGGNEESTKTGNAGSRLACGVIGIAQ

With N#C[Se]c1ccc(NC(=O)c2ccco2)cc1 [Compound 28] as the compound, how does the “ALP (liver marker)” value [1, 14] read?
The value was “+ (+/-, 10-20% increase/decrease over the range)”.

What about the “ALT/GPT (liver marker)” value [1, 14] of the same compound?
The value was “++ (++/--, 20-30% increase/decrease over the range)”.

And the “AST/GOT (liver marker)” value [1, 14]?
The value was “++ (++/--, 20-30% increase/decrease over the range)”.

And the “CK-MB (heart marker)” value [1, 14]?
The value was “++++ (++++/----, ˃ 40% increase/decrease over the range)”.

And the “LDH (heart marker)” value [1, 14]?
The value was “- (+/-, 10-20% increase/decrease over the range)”.

What about the “Total bilirubin (liver marker)” value [1, 14] of the same compound?
The value was “++ (++/--, 20-30% increase/decrease over the range)”.

And the “Urea (kidney marker)” value [1, 14]?
The value was “-- (++/--, 20-30% increase/decrease over the range)”.

And the “Uric acid (kidney marker)” value [1, 14]?
The value was “---- (++++/----, ˃ 40% increase/decrease over the range)”.

What about the “ALP (liver marker)” value [1, 15] of the same compound?
Its value is “+ (+/-, 10-20% increase/decrease over the range)”.

What about the “ALT/GPT (liver marker)” value [1, 15] of the same compound?
Its value is “++ (++/--, 20-30% increase/decrease over the range)”.

What about the “AST/GOT (liver marker)” value [1, 15] of the same compound?
The value was “+ (+/-, 10-20% increase/decrease over the range)”.

What about the “CK-MB (heart marker)” value [1, 15] of the same compound?
The value was “= (=, variation ≤ 10%)”.

What about the “LDH (heart marker)” value [1, 15] of the same compound?
The value was “= (=, variation ≤ 10%)”.

And the “Total bilirubin (liver marker)” value [1, 15]?
Its value is “= (=, variation ≤ 10%)”.

What about the “Urea (kidney marker)” value [1, 15] of the same compound?
Its value is “= (=, variation ≤ 10%)”.

And the “Uric acid (kidney marker)” value [1, 15]?
The value was “- (+/-, 10-20% increase/decrease over the range)”.

What about the “ALP (liver marker)” value [1, 16] of the same compound?
The value was “+ (+/-, 10-20% increase/decrease over the range)”.

What about the “ALT/GPT (liver marker)” value [1, 16] of the same compound?
Its value is “+ (+/-, 10-20% increase/decrease over the range)”.

What about the “AST/GOT (liver marker)” value [1, 16] of the same compound?
Its value is “= (=, variation ≤ 10%)”.

And the “CK-MB (heart marker)” value [1, 16]?
Its value is “++ (++/--, 20-30% increase/decrease over the range)”.

And the “LDH (heart marker)” value [1, 16]?
The value was “= (=, variation ≤ 10%)”.

What about the “Total bilirubin (liver marker)” value [1, 16] of the same compound?
The value was “= (=, variation ≤ 10%)”.

And the “Urea (kidney marker)” value [1, 16]?
Its value is “= (=, variation ≤ 10%)”.

And the “Uric acid (kidney marker)” value [1, 16]?
The value was “= (=, variation ≤ 10%)”.

And the “ALP (liver marker)” value [1, 17]?
The value was “= (=, variation ≤ 10%)”.

What about the “ALT/GPT (liver marker)” value [1, 17] of the same compound?
Its value is “= (=, variation ≤ 10%)”.

And the “AST/GOT (liver marker)” value [1, 17]?
Its value is “+ (+/-, 10-20% increase/decrease over the range)”.

What about the “CK-MB (heart marker)” value [1, 17] of the same compound?
Its value is “+ (+/-, 10-20% increase/decrease over the range)”.

And the “LDH (heart marker)” value [1, 17]?
The value was “= (=, variation ≤ 10%)”.

And the “Total bilirubin (liver marker)” value [1, 17]?
The value was “= (=, variation ≤ 10%)”.

And the “Urea (kidney marker)” value [1, 17]?
Its value is “= (=, variation ≤ 10%)”.

And the “Uric acid (kidney marker)” value [1, 17]?
Its value is “= (=, variation ≤ 10%)”.

What about the “selectivity index (SI), Tulahuen strain, am. forms” value [2, 18] of the same compound?
Its value is 33.

What about the IC50 ([2]; Trypanosoma cruzi, TULAHUEN, amastigotes in Vero cells, 72 h, read-out: activity IC50, Tulahuen strain, am. forms) of the same compound?
Its IC50 is 2.7 ± 0.3 µM.

And the “inhibition of nucleic acid levels” value [3]?
Its value is 62%.

What about the “selectivity index (SI), Arequipa strain, am. forms” value [4, 18] of the same compound?
Its value is 28.

And the IC50 ([4]; Trypanosoma cruzi, amastigotes in Vero cells, 72 h, read-out: activity IC50, Arequipa strain, am. forms)?
Its IC50 is 3.2 ± 0.4 µM.

And the IC50 [5]?
Its IC50 is 19.7 µM.

What about the “selectivity index (SI), Arequipa strain, trypom. forms” value [6, 19] of the same compound?
The value was 50.

And the IC50 ([6]; Trypanosoma cruzi, bloodstream trypomastigotes, 24 h + 4 h resazurin, read-out: activity IC50, Arequipa strain, trypom. forms)?
The IC50 was 1.8 ± 0.1 µM.

What about the IC50 [7] of the same compound?
The IC50 was over 100 µM.

What about the IC50 (Trypanosoma cruzi Fe-SOD) of the same compound?
Its IC50 is 9.4 µM.

What about the “Selectivity index (SI), epimastigotes, SN3 strain” value [8, 20] of the same compound?
The value was 24.

What about the IC50 ([8]; Trypanosoma cruzi, 48 h + 24 h resazurin, read-out: Activity IC50, epimastigote form, SN3 strain) of the same compound?
Its IC50 is 3.8 ± 0.4 µM.

And the “selectivity index (SI), SN3 strain, trypom. forms” value [9, 19]?
Its value is 53.

What about the IC50 ([9]; Trypanosoma cruzi, bloodstream trypomastigotes, 24 h + 4 h resazurin, read-out: activity IC50, SN3 strain, trypom. forms) of the same compound?
The IC50 was 1.7 ± 0.2 µM.

And the “selectivity index (SI), SN3 strain, am. forms” value [10, 18]?
The value was 53.

And the IC50 ([10]; Trypanosoma cruzi, amastigotes in Vero cells, 72 h, read-out: activity IC50, SN3 strain, am. forms)?
The IC50 was 1.7 ± 0.4 µM.

And the “anti-T. cruzi IgG levels (ELISA), acute phase treatment” value (T. cruzi Arequipa strain; [21])?
The value was “lower IgG values than the treated with BZN at the beginning of the treatment”.

What about the “splenomegaly reduction in comparison with untreated mice, acute phase treatment” value (T. cruzi Arequipa strain; [21]) of the same compound?
The value was 37%.

And the “parasitaemia reactivation after immunosuppression, acute phase treatment” value (T. cruzi Arequipa strain; 20 mg·kg–1 per day i.p. 5 days from 9 dpi, compared to untreated group)?
Its value is “approximately 95%”.

What about the “anti-T. cruzi IgG levels (ELISA), chronic phase treatment” value (T. cruzi Arequipa strain; [22]) of the same compound?
Its value is “similar”.

And the “splenomegaly reduction in comparison with untreated mice, chronic phase treatment” value (T. cruzi Arequipa strain; [22])?
The value was 48%.

What about the “parasitaemia reactivation after immunosuppression, chronic phase treatment” value (T. cruzi Arequipa strain; 20 mg·kg–1 per day i.p. 5 days from 100 dpi, compared to untreated group) of the same compound?
Its value is about 85%.

What about the “parasite levels in target organs/tissues by PCR (in words)” value (T. cruzi Arequipa strain; 20 mg·kg–1 per day i.p. 5 days, necropsy 145 dpi) of the same compound?
Its value is “did not decrease enough parasite levels in the analyzed tissues”.

What about the “parasitaemia profile during the acute phase” value (T. cruzi Arequipa strain; 20 mg·kg–1 per day i.p. for 5 days from 9 dpi) of the same compound?
The value was “slight antiparasitic activity over the first month”.

And the “Selectivity index (SI), epimastigotes, Tulahuen strain” value [11, 20]?
Its value is 19.

And the IC50 ([11]; Trypanosoma cruzi, TULAHUEN, 48 h + 24 h resazurin, read-out: Activity IC50, epimastigote form, Tulahuen strain)?
The IC50 was 4.6 ± 0.3 µM.

And the “Selectivity index (SI), epimastigotes, Arequipa strain” value [12, 20]?
The value was 19.

What about the IC50 ([12]; Trypanosoma cruzi, 48 h + 24 h resazurin, read-out: Activity IC50, epimastigote form, Arequipa strain) of the same compound?
Its IC50 is 4.8 ± 0.4 µM.

What about the “selectivity index (SI), Tulahuen strain, trypom. forms” value [13, 19] of the same compound?
The value was 50.

What about the IC50 ([13]; Trypanosoma cruzi, TULAHUEN, bloodstream trypomastigotes, 24 h + 4 h resazurin, read-out: activity IC50, Tulahuen strain, trypom. forms) of the same compound?
The IC50 was 1.8 ± 0.2 µM.

And the CC50 (Vero cells)?
The CC50 was 89.3 ± 7.5 µM.
